Results reported in a compilation of properties of binary mixtures (doi:10.1021/acs.jpcb.6b06974).

Assay: xn = mol fraction of the nth substance listed
Details: 101 kPa

## CCCCCC[n+]1ccn(C)c1.O=S(=O)([N-]S(=O)(=O)C(F)(F)F)C(F)(F)F + ClC(Cl)Cl
288.5 K, x1 = 0.018
  electrical conductivity: 0.021 S/m
288.5 K, x1 = 0.137
  electrical conductivity: 0.302 S/m
288.5 K, x1 = 0.297
  electrical conductivity: 0.46 S/m
288.5 K, x1 = 0.604
  electrical conductivity: 0.255 S/m
288.5 K, x1 = 0.713
  electrical conductivity: 0.211 S/m
288.5 K, x1 = 0.848
  electrical conductivity: 0.169 S/m
288.5 K, x1 = 0.911
  electrical conductivity: 0.153 S/m
288.5 K, x2 = 0.014
  electrical conductivity: 0.137 S/m
298.2 K, x1 = 0.034
  electrical conductivity: 0.076 S/m
298.2 K, x1 = 0.167
  electrical conductivity: 0.477 S/m
298.2 K, x1 = 0.256
  electrical conductivity: 0.582 S/m
298.2 K, x1 = 0.379
  electrical conductivity: 0.524 S/m
298.2 K, x1 = 0.562
  electrical conductivity: 0.369 S/m
298.2 K, x1 = 0.732
  electrical conductivity: 0.295 S/m
298.2 K, x1 = 0.87
  electrical conductivity: 0.245 S/m
298.2 K, x1 = 0.924
  electrical conductivity: 0.233 S/m
298.2 K, x1 = 0.962
  electrical conductivity: 0.221 S/m
298.2 K, x2 = 0.008
  electrical conductivity: 0.213 S/m
308.2 K, x1 = 0.019
  electrical conductivity: 0.04 S/m
308.2 K, x1 = 0.123
  electrical conductivity: 0.501 S/m
308.2 K, x1 = 0.214
  electrical conductivity: 0.686 S/m
308.2 K, x1 = 0.318
  electrical conductivity: 0.701 S/m
308.2 K, x1 = 0.4
  electrical conductivity: 0.652 S/m
308.2 K, x1 = 0.585
  electrical conductivity: 0.431 S/m
308.2 K, x1 = 0.807
  electrical conductivity: 0.378 S/m
308.2 K, x1 = 0.905
  electrical conductivity: 0.327 S/m
308.2 K, x1 = 0.949
  electrical conductivity: 0.336 S/m
308.2 K, x2 = 0.015
  electrical conductivity: 0.326 S/m
318.5 K, x1 = 0.03
  electrical conductivity: 0.072 S/m
318.5 K, x1 = 0.2
  electrical conductivity: 0.785 S/m
318.5 K, x1 = 0.247
  electrical conductivity: 0.835 S/m
318.5 K, x1 = 0.446
  electrical conductivity: 0.788 S/m
318.5 K, x1 = 0.684
  electrical conductivity: 0.55 S/m
318.5 K, x1 = 0.815
  electrical conductivity: 0.529 S/m
318.5 K, x1 = 0.92
  electrical conductivity: 0.479 S/m
